# Assays:
# [1] = cited from earlier work
# [2] = in vivo indicator dilution and elimination measured with intravenous optical fiber probe; conditions: healthy adult rhesus macaques, intravenous injection, reflectance in cephalic vein
# [3] = cited from earlier work; remark: listed apart in the source
structure (smiles),measurement,setting,value
"CC1(C)C(/C=C/C=C/C=C/C=C2\N(CCCCS(=O)(=O)O)c3ccc4ccccc4c3C2(C)C)=[N+](CCCCS(=O)(=O)[O-])c2ccc3ccccc3c21 [ICG, indocyanine green]",time to elimination by the liver,[1]; after mixing in the circulating compartment,≤ 15 min
same,route of excretion,[1]; in vivo,excreted unchanged in the bile
same,time until blood volume indicator values returned to baseline (non-detectable),[2],approximately 10 minutes
same,placental transfer,[3]; in vivo,does not cross the placenta
same,harm to the fetus,[3]; used in many pregnant women,without any reports of harm to the fetus

# From patent publication US20190192060A1, “DEVICE AND METHOD FOR BLOOD VOLUME MEASUREMENT” (Oregon Health & Science University, priority 2017, published 2019)
